Measured values published in patent publication US8318635B2, “Phytotoxicity controlling agent for upland farming and phytotoxicity controlling method using the same” (priority 2006, dated 2012).
Counter-ions that a name gives are not always drawn. Like-named read-outs stand apart in the source and are kept apart here.

Experiments:
adzuki bean (Dainagon) = test: Visual growth study, phytotoxicity index, chemicals scattered 14 days after sowing; format: in vivo
Protocol: (§1) These containers were each kept standing on a water vat filled with a water pool from which water was supplied through the opening in the bottom. […] After 8 days from the chemical treatment and after 14 days from the chemical treatment, visual growth studies were conducted for sweet corn, sorghum and adzuki bean and for wheat, barley, dry-paddy rice, soybean, rapeseed and beet, respectively and the results are shown in Table 2 and Table 3.

rapeseed = test: as above; format: in vivo
Protocol: as §1

[1] = test system: sweet corn (Delicious 100); test: as above; format: in vivo; conditions: 1.5 leaves stage, treated 14 days after sowing, 8 days after treatment, 0-100 scale, 4-(tert-butyl)benzoic acid 1000 g ai/ha in Examples, 0 in Comparative Examples, herbicide dose per label
Protocol: as §1

barley (Minori Rokujo) = test: as above; conditions: in vivo
Protocol: as §1

soybean (Fukuyutaka) [2] = test: as above; format: in vivo; conditions: true leaf extraction stage, treated 14 days after sowing, 14 days after treatment, 0-100 scale, 4-(tert-butyl)benzoic acid 1000 g ai/ha in Examples, 0 in Comparative Examples, herbicide dose per label
Protocol: as §1

dry-paddy rice (Labell) [3] = test: as above; format: in vivo; conditions: 0.8 leaves stage, treated 14 days after sowing, 14 days after treatment, 0-100 scale, 4-(tert-butyl)benzoic acid 1000 g ai/ha in Examples, 0 in Comparative Examples, herbicide dose per label
Protocol: as §1

wheat (Brigadier) [4] = test: as above; format: in vivo
Protocol: as §1

soybean (Fukuyutaka) [5] = test: Visual growth study, phytotoxicity index, chemicals scattered on the next day after sowing
Protocol: (§2) A wettable powder containing 10% of 4-(tert-butyl)benzoic acid was prepared by blending pulverization of 10 parts of 4-(tert-butyl)benzoic acid, 2 parts of a sodium salt of naphthalenesulfonic acid-formalin condensation product, 2 parts of a polyoxyethylene alkyl ether, 30 parts of diatomaceous earth and 56 parts of clay by using a high-speed air-jet pulverizer.
(§3) These containers were each kept standing in a water vat and water supply for pooling was introduced through the hole opening at the bottom of the water vat.
(§4) For comparison, on the other hand, evaluation was made by conducting growth studies by growing sweet corn, wheat, dry-paddy rice, sorghum, soybean, adzuki bean and rapeseed under the same conditions as in the Examples excepting for the omission of scattering of 4-(tert-butyl)benzoic acid.

sorghum (Funk's Hybrid) = test: as above; conditions: treated next day after sowing, 11 days after treatment, 0 = no growth inhibition, 100 = full dying, 4-(tert-butyl)benzoic acid 1000 g ai/ha in Examples, 0 in Comparative Examples, herbicide dose per label
Protocol: as §2, §3, §4

[6] = test system: sweet corn (Delicious 100); test: as above; conditions: treated next day after sowing, 26 days after treatment, 0 = no growth inhibition, 100 = full dying, 4-(tert-butyl)benzoic acid 1000 g ai/ha in Examples, 0 in Comparative Examples, herbicide dose per label
Protocol: as §2, §3, §4

beet (VIGIL) = test: Visual growth study, phytotoxicity index, chemicals scattered 14 days after sowing; format: in vivo; conditions: true leaf extraction stage, treated 14 days after sowing, 14 days after treatment, 0-100 scale, 4-(tert-butyl)benzoic acid 1000 g ai/ha in Examples, 0 in Comparative Examples, herbicide dose per label
Protocol: as §1

wheat (Brigadier) [7] = conditions: in vivo
Protocol: as §2, §3, §4

dry-paddy rice (Labell) [8] = test: Visual growth study, phytotoxicity index, chemicals scattered on the next day after sowing; format: in vivo; conditions: treated next day after sowing, 26 days after treatment, 0 = no growth inhibition, 100 = full dying, 4-(tert-butyl)benzoic acid 1000 g ai/ha in Examples, 0 in Comparative Examples, herbicide dose per label
Protocol: as §2, §3, §4

[9] = wheat, 2 leaves stage, treated 14 days after sowing, 14 days after treatment, 0-100 scale, 4-(tert-butyl)benzoic acid 1000 g ai/ha in Examples, 0 in Comparative Examples, herbicide dose per label

## Cn1nc(C(F)(F)F)c(CS(=O)(=O)C2=NOC(C)(C)C2)c1OC(F)F [compound 27]
Adzuki bean (Dainagon); in vivo
  Phytotoxicity index: 25

## COC[C@H](C)N(C(=O)CCl)c1c(C)csc1C [compound 29, Dimethenamide-P]
rapeseed; rapeseed, two paired leaves extraction stage, treated 14 days after sowing, 14 days after treatment, 0-100 scale, 4-(tert-butyl)benzoic acid 1000 g ai/ha in Examples, 0 in Comparative Examples, herbicide dose per label
  Phytotoxicity index: 10

## O=C(Nc1ccc(F)cc1F)c1cccnc1Oc1cccc(C(F)(F)F)c1 [compound 17, Diflufenican]
[1]
  Phytotoxicity index: 35

## Cn1nc(C(F)(F)F)c(CS(=O)(=O)C2=NOC(C)(C)C2)c1OC(F)F [compound 23]
Barley (Minori Rokujo)
  Phytotoxicity index: 18

## COC[C@H](C)N(C(=O)CCl)c1c(C)csc1C [compound 15, Dimethenamide-P]
[1]
  Phytotoxicity index: 20

## COC[C@H](C)N(C(=O)CCl)c1c(C)csc1C [compound 25, Dimethenamide-P]
Soybean (Fukuyutaka) [2]
  Phytotoxicity index: 15

## COc1cc(OC)nc(Oc2cccc(Oc3nc(OC)cc(OC)n3)c2C(=O)O)n1 [compound 24, Bispyribac-sodium]
dry-paddy rice (Labell) [3]
  Phytotoxicity index: 18

## O=C(Nc1ccc(F)cc1F)c1cccnc1Oc1cccc(C(F)(F)F)c1 [compound 22, Diflufenican]
Wheat (Brigadier) [4]; [9]
  Phytotoxicity index: 15

## COC[C@H](C)N(C(=O)CCl)c1c(C)csc1C [compound 10, Dimethenamide-P]
Soybean (Fukuyutaka) [5]; soybean, treated next day after sowing, 26 days after treatment, 0 = no growth inhibition, 100 = full dying, 4-(tert-butyl)benzoic acid 1000 g ai/ha in Examples, 0 in Comparative Examples, herbicide dose per label
  Phytotoxicity index: 20

## CS(=O)(=O)c1ccc(C(=O)C2C(=O)CCCC2=O)c([N+](=O)[O-])c1 [compound 16, Mesotrione]
[1]
  Phytotoxicity index: 13

## COc1cc(OC)nc(Oc2cccc(Oc3nc(OC)cc(OC)n3)c2C(=O)O)n1 [compound 19, Bispyribac-sodium]
Wheat (Brigadier) [4]; [9]
  Phytotoxicity index: 35

## CCOC(=O)[C@@H](C)Oc1ccc(Oc2nc3ccc(Cl)cc3o2)cc1 [compound 18, Fenoxaprop-P-ethyl]
Wheat (Brigadier) [4]; [9]
  Phytotoxicity index: 40

## Cn1nc(C(F)(F)F)c(CS(=O)(=O)C2=NOC(C)(C)C2)c1OC(F)F [compound 30]
rapeseed; in vivo
  Phytotoxicity index: 40

## CC(C)C1(C)N=C(c2nc3ccccc3cc2C(=O)O)NC1=O (stereo not shown) [compound 8, Imazaquin ammonium salt]
Sorghum (Funk's Hybrid)
  Phytotoxicity index: 45

## COC[C@H](C)N(C(=O)CCl)c1c(C)csc1C [compound 2, Dimethenamide-P]
[6]
  Phytotoxicity index: 33

## COC[C@H](C)N(C(=O)CCl)c1c(C)csc1C [compound 31, Dimethenamide-P]
Beet (VIGIL)
  Phytotoxicity index: 35

## CCNc1nc(Cl)nc(NC(C)C)n1 [compound 3, Atrazine]
[6]
  Phytotoxicity index: 15

## O=C(Nc1ccc(F)cc1F)c1cccnc1Oc1cccc(C(F)(F)F)c1 [compound 26, Diflufenican]
Soybean (Fukuyutaka) [2]
  Phytotoxicity index: 30

## Cn1nc(C(F)(F)F)c(CS(=O)(=O)C2=NOC(C)(C)C2)c1OC(F)F [compound 11]
Soybean (Fukuyutaka) [5]; in vivo
  Phytotoxicity index: 20

## O=C(Nc1ccc(F)cc1F)c1cccnc1Oc1cccc(C(F)(F)F)c1 [compound 28, Diflufenican]
Adzuki bean (Dainagon); adzuki bean, true leaf extraction stage, treated 14 days after sowing, 8 days after treatment, 0-100 scale, 4-(tert-butyl)benzoic acid 1000 g ai/ha in Examples, 0 in Comparative Examples, herbicide dose per label
  Phytotoxicity index: 35

## Cc1ccn2nc(S(=O)(=O)Nc3c(F)cccc3F)nc2n1 [compound 4, Flumetsulam]
Wheat (Brigadier) [7]
  Phytotoxicity index: 13

## Cn1nc(C(F)(F)F)c(CS(=O)(=O)C2=NOC(C)(C)C2)c1OC(F)F [compound 20]
Wheat (Brigadier) [4]; in vivo
  Phytotoxicity index: 20

## COc1cc(OC)nc(Oc2cccc(Oc3nc(OC)cc(OC)n3)c2C(=O)O)n1 [compound 14, Bispyribac-sodium]
[1]
  Phytotoxicity index: 45

## CCNc1nc(Cl)nc(NC(C)C)n1 [compound 7, Atrazine]
dry-paddy rice (Labell) [8]
  Phytotoxicity index: 35

## CS(=O)(=O)c1ccc(C(=O)C2C(=O)CCCC2=O)c([N+](=O)[O-])c1 [compound 21, Mesotrione]
Wheat (Brigadier) [4]; [9]
  Phytotoxicity index: 40
